According to patent US7812172B2, “Thiazolothiazole derivative” (Fuji Xerox Co., Ltd., priority 2008, dated 2010):
Where two headings read alike, the source gives them in different places.

Assay: Evaluation of solubility of thiazolothiazole derivatives in organic solvents
Format: physicochemical
Conditions: for solubility: organic solvent or mixture, thermodynamic from solid, 25° C., else heated to boiling temperature, naked eye
Protocol: In the present exemplary embodiment, the term “dissolve” refers to a state in which, after the thiazolothiazole derivative according to the present exemplary embodiment is added to an organic solvent, no crystal is observed by observation with the naked eye. The term “high solubility” or “good solubility” refers to such properties that the thiazolothiazole derivative dissolves at the boiling temperature of the organic solvent.
The solubility test is performed as follows:
10 mg (1.0 weight %) of an exemplary compound to be tested is dissolved in 1 ml of a solvent (such as dichlorobenzene, monochlorobenzene, chloroform, THF, toluene or xylene). […] The degree of dissolution is observed with the naked eye.
A: dissolves even when heating is not conducted
B: completely dissolves when heating is conducted
C: a large proportion thereof dissolves when heating is conducted
D: a small proportion thereof dissolves when heating is conducted

[1] = 10 mg (1.0 weight %) in 1 ml THF, read-out: Solubility THF
[2] = 10 mg (1.0 weight %) in 1 ml chloroform, read-out: Solubility Chloroform
[3] = 10 mg (1.0 weight %) in 1 ml dichlorobenzene, read-out: Solubility Dichlorobenzene
[4] = 10 mg (1.0 weight %) in 1 ml monochlorobenzene, read-out: Solubility Monochlorobenzene
[5] = 10 mg (1.0 weight %) in 1 ml toluene, read-out: Solubility Toluene
[6] = 10 mg (1.0 weight %) in 1 ml xylene, read-out: Solubility Xylene

| SMILES | solubility [1] [µg/mL] | solubility [2] [µg/mL] | solubility [3] [µg/mL] | solubility [4] [µg/mL] | solubility [5] [µg/mL] | solubility [6] [µg/mL] | Solubility in organic solvents (in words) (organic solvents, general statement) |
| --- | --- | --- | --- | --- | --- | --- | --- |
| c1csc(-c2ccc(-c3nc4sc(-c5ccc(-c6cccs6)s5)nc4s3)s2)c1 [Compound 3, reference compound] | < 10000 | < 10000 | < 10000 | < 10000 | < 10000 | < 10000 | hardly dissolves |
| CCCCc1ccc(-c2ccc(-c3nc4sc(-c5ccc(-c6ccc(CCCC)cc6)s5)nc4s3)s2)cc1 [Exemplary Compound (1)] | < 10000 | < 10000 | < 10000 | < 10000 | < 10000 | < 10000 | – |
| CCCCOc1ccc(-c2ccc(-c3nc4sc(-c5ccc(-c6ccc(OCCCC)cc6)s5)nc4s3)s2)cc1 [Exemplary Compound (11)] | < 10000 | < 10000 | < 10000 | < 10000 | < 10000 | < 10000 | – |
| CC(C)(C)c1ccc(-c2ccc(-c3nc4sc(-c5ccc(-c6ccc(C(C)(C)C)cc6)s5)nc4s3)s2)cc1 [Exemplary Compound (15)] | < 10000 | < 10000 | < 10000 | < 10000 | < 10000 | < 10000 | – |

Other lines, results leading:

| solubility [1] [µg/mL] | solubility [2] [µg/mL] | solubility [3] [µg/mL] | solubility [4] [µg/mL] | solubility [5] [µg/mL] | solubility [6] [µg/mL] | Solubility in organic solvents (in words) (organic solvents, general statement) | SMILES |
| --- | --- | --- | --- | --- | --- | --- | --- |
| > 10000 | < 10000 | > 10000 | > 10000 | < 10000 | < 10000 | – | CCCCCCCCc1ccc(-c2cc(C)c(-c3nc4sc(-c5sc(-c6ccc(CCCCCCCC)cc6)cc5C)nc4s3)s2)cc1 [Exemplary Compound (8)] |
| > 10000 | > 10000 | > 10000 | > 10000 | > 10000 | > 10000 | – | CCCCCCCCc1cc(-c2ccc(CCCC)cc2)sc1-c1nc2sc(-c3sc(-c4ccc(CCCC)cc4)cc3CCCCCCCC)nc2s1 [Exemplary Compound (25)] |
| > 10000 | > 10000 | > 10000 | > 10000 | > 10000 | > 10000 | – | CCCCCCCCc1ccc(-c2cc(CCCCCCCC)c(-c3nc4sc(-c5sc(-c6ccc(CCCCCCCC)cc6)cc5CCCCCCCC)nc4s3)s2)cc1 [Exemplary Compound (27)] |
| > 10000 | > 10000 | > 10000 | > 10000 | > 10000 | > 10000 | – | CCCCCCCCCCCCc1ccc(-c2cc(CCCCCCCC)c(-c3nc4sc(-c5sc(-c6ccc(CCCCCCCCCCCC)cc6)cc5CCCCCCCC)nc4s3)s2)cc1 [Exemplary Compound (28)] |
